Results taken from patent US20210060044A1, “METHODS FOR TREATING BLADDER CANCER BY ACTIVATION OF HEDGEHOG SIGNALING USING A M[…]” (POSTECH Research and Business Development Foundation, priority 2019, published 2021).
Where two headings read alike, the source gives them in different places.

Assays:
[1] = test system: CpG shore upstream of the CpG island of the Shh promoter region; conditions: 1 mg per kg every other day for 2 weeks; vehicle control 62%
Procedure: (§6) The mice were administered 8 mg of tamoxifen (TM; Sigma) per 30 g of body weight by oral gavage for three consecutive days. Male mice aged 8 to 10 weeks were used. […] In each experiment, the mice were randomly selected for a drug/TM or control-treated group. The experiments involving mice were performed under isoflurane anesthesia.
The DNA methylation status of mouse and human Shh was confirmed using genomic DNA bisulfite sequencing. For bisulfite conversion, 1 μg of genomic DNA was converted using a MethylEdge Bisulfite Conversion System (Promega) according to the manufacturer's instructions. The genomic sequences of the regulatory regions of mouse Shh and human SHH were obtained from the NCBI nucleotide database (Mus musculus: NC_000071.6, Homo sapiens: NG_007504.2), and the CpG island (island) and CpG shores in the regulatory region were identified using Methprimer 2.0 (Li and Dahiya, 2002) (RRID: SCR_010269). The 2kb regions upstream and downstream of the CpG island were referred to as a “CpG upshore” and a “CpG downshore,” respectively. […]
(§7) The sequencing data was assembled using SnapGene software (https://snapgene.com/, RRID: SCR_015053) and the MUSCLE: multiple sequence alignment tool (haps://www.ebi.ac.uk/Tools/msa/muscle/ RRID: SCR_011812). […] The methylated CpG sites were counted and distinguished from unmethylated CpG sites.

[2] = test system: luminal markers (Upk1a, Upk1b, Upk2, Upk3a, Upk3b, Krt20, Krt18); conditions: tumor allografts; normalized to Krt5
Procedure: (§1) Human or mouse bladder samples were snap-frozen in liquid nitrogen, homogenized with a mortar and a pestle, and RNA was extracted using an RNeasy Plus Mini Kit (Qiagen).
(§2) Subsequently, the RNA samples were dissolved in RNase-free water, and their concentration and purity were measured with a spectrophotometer. The TAE/formamide electrophoresis method (Masek et al., 2005) was used for RNA quality analysis. For quantitative RT-PCR of mRNA transcripts, first-strand cDNA was synthesized using a high-capacity cDNA reverse transcriptase kit (Applied Biosystems) containing oligo dT. Quantitative RT-PCR was performed using SYBR Green Supermix (Applied Biosystems) and a one-step cycler (Applied Biosystems), and gene expression was normalized to the housekeeping gene HPRT1.
(§3) To evaluate the effect of DNA methyltransferase inhibition on the growth of bladder cancer under immunocompromised conditions, nude mice (14 mice) orthotopically injected with BBN-induced bladder tumor cells were divided into a vehicle control (7 mice) and a 5′-azacitidine-treated group (7 mice), and then treated with a vehicle and 5′-azacitidine for 2 weeks, respectively. In addition, allograft sections of the vehicle control or 5′-azacitidine-treated mice were subjected to H&E staining, and the experimental scheme is shown in FIG. 4A.

[3] = test system: luminal and basal signatures; conditions: tumor allografts, RNA-Seq
Procedure: Total RNA was extracted with a TRIzol reagent (Thermo Fisher) according to the manufacturer's instructions. RNA-seq libraries were constructed using the TruSeq sample prep kit V2 (Illumina). […] The RNA-seq libraries were sequenced using a NextSeq platform with 75-bp single-end reads.
Differentially expressed genes were analyzed using Cufflinks tools (Trapnell et al., 2012). From all annotated genes, genes were removed when the rpkm average of all sequenced samples is less than 1.0, such that the depth to which the genes are assigned may be low. GSEA was performed according to the instructions (RRID: SCR_003199). To generate a customized gene set for a luminal marker and a basal marker, a representative gene for each signature was obtained from a previous study (Damrauer et al., 2014). The RNA-seq data set used herein was deposited in NCBI GEO (Accession No.: GSE129441).
In addition, using standard luminal and basal signatures obtained from previous research, GSEA of tumor allografts treated with the vehicle control and 5′-azacitidine from RNA-Seq data was performed.

[4] = test system: CpG shore upstream of the CpG island of the Shh promoter region; conditions: tumor organoids, 1 μM for four consecutive days; vehicle control 73%
Procedure: The DNA methylation status of mouse and human Shh was confirmed using genomic DNA bisulfite sequencing. For bisulfite conversion, 1 μg of genomic DNA was converted using a MethylEdge Bisulfite Conversion System (Promega) according to the manufacturer's instructions. The genomic sequences of the regulatory regions of mouse Shh and human SHH were obtained from the NCBI nucleotide database (Mus musculus: NC_000071.6, Homo sapiens: NG_007504.2), and the CpG island (island) and CpG shores in the regulatory region were identified using Methprimer 2.0 (Li and Dahiya, 2002) (RRID: SCR_010269). […]
as §7
BBN-induced bladder tumors were minced, and then incubated in DMEM (Gibco) containing collagenase I and II (20 mg/ml each) and thermolysin (250 KU/ml) at 37° C. for 2 hours, followed by 5-minute trituration every 30 minutes. […] After lysis of red blood cells in ACK lysis buffer (Gibco), the cells were washed with DMEM containing 10% fetal bovine serum (Millipore) and counted using a hemocytometer (Sigma). […]

[5] = test system: Shh gene; conditions: orthotopic BBN-induced mouse tumor, 1 mg per kg every other day for 2 weeks
Procedure: as §1, §2

[6] = test system: J82 cells; conditions: J82 orthotopic xenograft, treated one month; vehicle: full-fledged muscle-invasive carcinoma
Procedure: (§4) To investigate the functional role of SHH expression in the growth of human bladder tumors and the effects of the Hh/BMP signaling feedback between tumors and the stroma on the subtype conversion of human muscle-invasive urothelial carcinoma, xenografts in which J82 cells were orthotopically injected into immunocompromised mice (NOD/SCID/IL2Rgnull) (14 mice) were treated with 5′-azacitidine for one month, and orthotopic xenografts in the mice treated with the vehicle control (7 mice) or 5′-azacitidine (7 mice) were subjected to H&E staining.

[7] = test system: Shh gene; conditions: tumor organoids, 1 μM for four consecutive days
Procedure: as §2

[8] = test system: BBN-induced tumors; conditions: TM three days, transplantation, treatment 1.5 months
Procedure: (§8) For a gene deletion experiment, Col1a2^CreER (RRID: IMSR_JAX: 029235) mice were mated with the Smo^flox/flox (RRID: IMSR_JAX: 007926) or Gli2^flox/flox (RRID: IMSR_JAX: 004526) strains, thereby obtaining Col1a2^CreER; Smo^flox/flox or Col1a2^CreER;Gli2^flox/flox mice.
The mice were administered 8 mg of tamoxifen (TM; Sigma) per 30 g of body weight by oral gavage for three consecutive days. Male mice aged 8 to 10 weeks were used. […] The dosing duration is described in the brief description of the drawings. In each experiment, the mice were randomly selected for a drug/TM or control-treated group. The experiments involving mice were performed under isoflurane anesthesia.
Bladder tumors were dissociated into single cells as described above. The cells were resuspended in 80 ml DMEM containing 50% Matrigel (BD Bioscience), and then submucosally injected into the anterior aspect of the bladder dome using a 29-gauge insulin syringe. An abdominal incision and skin were closed with a 4-0 nylon suture, and the surgical site was disinfected with alcohol. Bladder tumor organoids were selected, and resuspended in a 50% organoid medium and 50%

[9] = test system: Ck18; conditions: tumor allografts, nude mice
Description: as §3

[10] = test system: BBN-induced bladder tumor cells; conditions: nude mice, treated 2 weeks
Description: as §3

[11] = test system: BBN-induced muscle-invasive urothelial carcinoma; conditions: Col1a2CreER;Smoflox/flox or Col1a2CreER;Gli2flox/flox mice, BBN 6 months
Procedure: as §8
The mice were administered 8 mg of tamoxifen (TM; Sigma) per 30 g of body weight by oral gavage for three consecutive days. Male mice aged 8 to 10 weeks were used. […] In each experiment, the mice were randomly selected for a drug/TM or control-treated group. The experiments involving mice were performed under isoflurane anesthesia. All procedures were performed according to a protocol approved by the Institutional Animal Care and Use Committee at POSTECH (IACUC number: POSTECH-2017-0094).
(§9) 0.1% N-butyl-N-4-hydroxybutyl nitrosamine (BBN, TCI) was dissolved in drinking water, and the BBN-containing water was placed in a dark bottle, and provided ad libitum to mice for 4 to 6 months. The BBN-containing water was replaced twice a week. Bladders were collected and analyzed 4 to 6 months after BBN administration.

[12] = test system: BBN-induced bladder tumor cells
Procedure: as §6
Bladder tumors were dissociated into single cells as described above. The cells were resuspended in 80 ml DMEM containing 50% Matrigel (BD Bioscience), and then submucosally injected into the anterior aspect of the bladder dome using a 29-gauge insulin syringe.
(§10) Tumor specimens were fixed in 10% neutral-buffered formalin for 12 hours, embedded in paraffin, and then sectioned into 4-um thick sections using a microtome. The slides were stained with hematoxylin and counter-stained with eosin for histological analysis. For immunostaining, tumor samples were embedded in an OCT compound (Tissue-Tek) and sectioned into 10-um-thick sections with a cryostat (Leica).
To evaluate the effect of the inhibition of DNA methyltransferase (DNMT) on the growth of bladder cancer, recently established transplantation models were used, and these models allow the proliferation of tumor cells transplanted in a microenvironment in vivo by injecting bladder cancer cells into the wall of the bladder dome.

[13] = test system: T24
Procedure: (§5) Frozen human bladder tissue samples were obtained from the tissue bank of Seoul National University Hospital. For fresh bladder tumor samples, 0.5 to 1-cm^3 bladder tissue specimens were obtained from patients undergoing cystectomy or TURBT according to a protocol approved by the SNUH Institutional Review Board (IRB No.: 1607-135-777). Informed consent to patient information provision and publishing was obtained from the patients. The cancer tissues were evaluated before transport to POSTECH for additional analysis. For experiments for bladder cancer cell lines, J82 (RRID: CVCL_0359), T24 (RRID: CVCL_0554) and TCC (RRID: CVCL_1738) were used. All cell lines were authenticated by a STR profiling method, and tested negative for mycoplasma contamination.
as §2

[14] = test system: TCC-SUP
Procedure: as §5, §2

[15] = test system: J82
Procedure: as §5, §2

[16] = test system: BBN-induced invasive carcinoma; conditions: BBN 4 months, then treatment 2 months with continued BBN; found in vehicle control
Procedure: as §6, §9, §10

[17] = test system: luminal markers (FOXA1 and GATA3) and basal markers (CDH3 and KRT6A); conditions: J82 tumor xenografts
Procedure: as §2, §4

Structure (SMILES): Nc1ncn([C@@H]2O[C@H](CO)[C@@H](O)[C@H]2O)c(=O)n1 [5′-azacitidine]
- methylation level in the CpG shore upstream of the CpG island of the Shh promoter region [1]: 36%
- Krt18 expression, increase compared with the vehicle control [2]: 2 fold
- Krt20 expression, increase compared with the vehicle control [2]: 1.5 fold
- Upk1a expression, increase compared with the vehicle control [2]: 3 fold
- Upk1b expression, increase compared with the vehicle control [2]: 2 fold
- Upk2 expression, increase compared with the vehicle control [2]: 2 fold
- Upk3a expression, increase compared with the vehicle control [2]: 2.5 fold
- Upk3b expression, increase compared with the vehicle control [2]: 2 fold
- basal marker expression (GSEA) [3]: relatively low level
- luminal signature (GSEA) [3]: strong luminal signature
- methylation level in the CpG shore upstream of the CpG island of the Shh promoter region [4]: 43%
- Shh gene expression level, increase compared to the vehicle control [5]: 11 fold
- cancer lesions in the bladder (H&E) [6]: much smaller cancer lesions
- Shh gene expression level, increase compared to the vehicle control [7]: 9 fold
- anticancer propagation effect in strains with genetically inhibited stromal Hh signaling pathway [8]: disappeared
- expression of luminal subtype marker Ck18 (immunostaining) [9]: increased
- tumor lesions compared with untreated group (H&E) [10]: smaller tumor lesions
- anticancer initiation effect in TM-treated group (stromal Hh response removed) [11]: reversed
- growth of bladder tumors ([12]; immunocompetent wild-type mice): completely inhibits
- invasive carcinoma (H&E) ([12]; treated for 1.5 months, appeared in vehicle control): no invasive carcinoma appeared
- SHH expression, increase compared with untreated control [13]: 7 fold
- SHH expression, increase compared with untreated control [14]: 3 fold
- SHH expression, increase compared with untreated control [15]: 6 fold
- invasive carcinoma (H&E) [16]: not found
- basal marker CDH3 expression, decrease compared with the vehicle [17]: 6 fold
- basal marker KRT6A expression, decrease compared with the vehicle [17]: 9 fold
- luminal marker FOXA1 expression, increase compared with the vehicle [17]: 1.8 fold
- luminal marker GATA3 expression, increase compared with the vehicle [17]: 1.8 fold
